Legend:
Assay in all cases: relative viability (nuclei count vs DMSO), 5 days (fraction); higher = more cells survive
KIN001-266 = compound: CCN1CCC(CC1)N2C=C(N=N2)CNC3=CC4=C(C(=CN=C4C(=C3)Cl)C#N)NC5=CC(=C(C=C5)F)Cl [KIN001-266]
Summary of the method: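 After an overnight hold at 37 °C, lung cancer cell lines in 1536-well plates were pinned with five library-drug doses (not always all listed), each √10 from the next, on vehicle-anchored plates. The cells stayed 5 days without fresh medium, then a one-step fix, permeabilisation and Hoechst stain preceded 4× imaging and MetaXpress nuclear counts. A plate passed only with control CV under 25% and at least one doubling. Viability is the median, over plates, of treated-well nuclei relative to vehicle-well nuclei.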

KIN001-266 + Trametinib = compound: CCN1CCC(CC1)N2C=C(N=N2)CNC3=CC4=C(C(=CN=C4C(=C3)Cl)C#N)NC5=CC(=C(C=C5)F)Cl [KIN001-266] + CC(=O)Nc1cccc(-n2c(=O)n(C3CC3)c(=O)c3c(Nc4ccc(I)cc4F)n(C)c(=O)c(C)c32)c1 [Trametinib] (partner 0.02 µM)
Summary of the method: (§1)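 Values are medians from duplicate plates. Each reflects relative viability, defined as the nuclei count of treated wells over that of vehicle wells. Lung cancer cell lines in 1536-well plates were pin-tool dosed one day after seeding with one drug alone or with a fixed anchor-drug dose plus five library-drug doses (not always all listed) in √10 steps, then fixed, stained and imaged at 4× after 5 days.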

KIN001-266 + OSI-027 = compound: CCN1CCC(CC1)N2C=C(N=N2)CNC3=CC4=C(C(=CN=C4C(=C3)Cl)C#N)NC5=CC(=C(C=C5)F)Cl [KIN001-266] + COc1cccc2cc(-c3nc([C@H]4CC[C@H](C(=O)O)CC4)n4ncnc(N)c34)[nH]c12 [OSI-027] (partner 0.5 µM)
Summary of the method: as §1

KIN001-266 + Phenformin = compound: CCN1CCC(CC1)N2C=C(N=N2)CNC3=CC4=C(C(=CN=C4C(=C3)Cl)C#N)NC5=CC(=C(C=C5)F)Cl [KIN001-266] + N=C(N)NC(=N)NCCc1ccccc1 [Phenformin] (partner 250 µM)
Summary of the method: as §1

NCI-H2228 was tested, and the relative viability (KIN001-266; 0.08 µM) was 1.03, the relative viability (KIN001-266; 0.253 µM) was 1.02 and the relative viability (KIN001-266; 0.8 µM) was 1.02. It also gave a relative viability (KIN001-266; 2.53 µM) of 0.903, a relative viability (KIN001-266; 8 µM) of 0.808 and a relative viability (KIN001-266 + Trametinib; first compound 0.08 µM) of 0.564. The relative viability (KIN001-266 + Trametinib; first compound 0.253 µM) was 0.448, the relative viability (KIN001-266 + Trametinib; first compound 0.8 µM) was 0.457 and the relative viability (KIN001-266 + Trametinib; first compound 2.53 µM) was 0.357. For the same cell line, the relative viability (KIN001-266 + Trametinib; first compound 8 µM) was 0.402, the relative viability (KIN001-266 + OSI-027; first compound 0.08 µM) was 0.623 and the relative viability (KIN001-266 + OSI-027; first compound 0.253 µM) was 0.428. The relative viability (KIN001-266 + OSI-027; first compound 0.8 µM) was 0.606, the relative viability (KIN001-266 + OSI-027; first compound 2.53 µM) was 0.462 and the relative viability (KIN001-266 + OSI-027; first compound 8 µM) was 0.34. The relative viability (KIN001-266 + Phenformin; first compound 0.08 µM) was 0.392, the relative viability (KIN001-266 + Phenformin; first compound 0.253 µM) was 0.282 and the relative viability (KIN001-266 + Phenformin; first compound 0.8 µM) was 0.322. The relative viability (KIN001-266 + Phenformin; first compound 2.53 µM) was 0.296 and the relative viability (KIN001-266 + Phenformin; first compound 8 µM) was 0.281.
NCI-H2342 showed a relative viability (KIN001-266; 0.08 µM) of 1.02, a relative viability (KIN001-266; 0.253 µM) of 0.971 and a relative viability (KIN001-266; 0.8 µM) of 0.958. For the same cell line, the relative viability (KIN001-266; 2.53 µM) was 0.965, the relative viability (KIN001-266; 8 µM) was 1.1 and the relative viability (KIN001-266 + Trametinib; first compound 0.08 µM) was 0.922. For the same cell line, the relative viability (KIN001-266 + Trametinib; first compound 0.253 µM) was 0.868, the relative viability (KIN001-266 + Trametinib; first compound 0.8 µM) was 0.848 and the relative viability (KIN001-266 + Trametinib; first compound 2.53 µM) was 1.01. The relative viability (KIN001-266 + Trametinib; first compound 8 µM) was 1.22, the relative viability (KIN001-266 + OSI-027; first compound 0.08 µM) was 0.607 and the relative viability (KIN001-266 + OSI-027; first compound 0.253 µM) was 0.626. It also gave a relative viability (KIN001-266 + OSI-027; first compound 0.8 µM) of 0.564, a relative viability (KIN001-266 + OSI-027; first compound 2.53 µM) of 0.708 and a relative viability (KIN001-266 + OSI-027; first compound 8 µM) of 0.754. For the same cell line, the relative viability (KIN001-266 + Phenformin; first compound 0.08 µM) was 0.638, the relative viability (KIN001-266 + Phenformin; first compound 0.253 µM) was 0.572 and the relative viability (KIN001-266 + Phenformin; first compound 0.8 µM) was 0.537. The relative viability (KIN001-266 + Phenformin; first compound 2.53 µM) was 0.531 and the relative viability (KIN001-266 + Phenformin; first compound 8 µM) was 0.642.
For NCI-H2347, the relative viability (KIN001-266; 0.08 µM) was 1.04, the relative viability (KIN001-266; 0.253 µM) was 1 and the relative viability (KIN001-266; 0.8 µM) was 1. For the same cell line, the relative viability (KIN001-266; 2.53 µM) was 0.989, the relative viability (KIN001-266; 8 µM) was 0.582 and the relative viability (KIN001-266 + Trametinib; first compound 0.08 µM) was 0.304. For the same cell line, the relative viability (KIN001-266 + Trametinib; first compound 0.253 µM) was 0.323, the relative viability (KIN001-266 + Trametinib; first compound 0.8 µM) was 0.282 and the relative viability (KIN001-266 + Trametinib; first compound 2.53 µM) was 0.278. It also gave a relative viability (KIN001-266 + Trametinib; first compound 8 µM) of 0.22, a relative viability (KIN001-266 + OSI-027; first compound 0.08 µM) of 0.606 and a relative viability (KIN001-266 + OSI-027; first compound 0.253 µM) of 0.456. It also gave a relative viability (KIN001-266 + OSI-027; first compound 0.8 µM) of 0.296, a relative viability (KIN001-266 + OSI-027; first compound 2.53 µM) of 0.374 and a relative viability (KIN001-266 + OSI-027; first compound 8 µM) of 0.255. For the same cell line, the relative viability (KIN001-266 + Phenformin; first compound 0.08 µM) was 0.405, the relative viability (KIN001-266 + Phenformin; first compound 0.253 µM) was 0.428 and the relative viability (KIN001-266 + Phenformin; first compound 0.8 µM) was 0.435. The relative viability (KIN001-266 + Phenformin; first compound 2.53 µM) was 0.519 and the relative viability (KIN001-266 + Phenformin; first compound 8 µM) was 0.24.
In the case of NCI-H2405, the relative viability (KIN001-266; 0.08 µM) is reported as 1.03, the relative viability (KIN001-266; 0.253 µM) is reported as 1.02 and the relative viability (KIN001-266; 0.8 µM) is reported as 0.977. The relative viability (KIN001-266; 2.53 µM) was 0.958, the relative viability (KIN001-266; 8 µM) was 0.821 and the relative viability (KIN001-266 + Trametinib; first compound 0.08 µM) was 0.64. For the same cell line, the relative viability (KIN001-266 + Trametinib; first compound 0.253 µM) was 0.658, the relative viability (KIN001-266 + Trametinib; first compound 0.8 µM) was 0.661 and the relative viability (KIN001-266 + Trametinib; first compound 2.53 µM) was 0.615. For the same cell line, the relative viability (KIN001-266 + Trametinib; first compound 8 µM) was 0.61, the relative viability (KIN001-266 + OSI-027; first compound 0.08 µM) was 0.652 and the relative viability (KIN001-266 + OSI-027; first compound 0.253 µM) was 0.671. The relative viability (KIN001-266 + OSI-027; first compound 0.8 µM) was 0.609, the relative viability (KIN001-266 + OSI-027; first compound 2.53 µM) was 0.561 and the relative viability (KIN001-266 + OSI-027; first compound 8 µM) was 0.515. For the same cell line, the relative viability (KIN001-266 + Phenformin; first compound 0.08 µM) was 0.401, the relative viability (KIN001-266 + Phenformin; first compound 0.253 µM) was 0.412 and the relative viability (KIN001-266 + Phenformin; first compound 0.8 µM) was 0.378. It also gave a relative viability (KIN001-266 + Phenformin; first compound 2.53 µM) of 0.379 and a relative viability (KIN001-266 + Phenformin; first compound 8 µM) of 0.155.
In the case of NCI-H3122, the relative viability (KIN001-266; 0.08 µM) is reported as 0.967, the relative viability (KIN001-266; 0.253 µM) is reported as 1.02 and the relative viability (KIN001-266; 0.8 µM) is reported as 1.01. The relative viability (KIN001-266; 2.53 µM) was 0.919, the relative viability (KIN001-266; 8 µM) was 0.95 and the relative viability (KIN001-266 + Trametinib; first compound 0.08 µM) was 0.234. For the same cell line, the relative viability (KIN001-266 + Trametinib; first compound 0.253 µM) was 0.218, the relative viability (KIN001-266 + Trametinib; first compound 0.8 µM) was 0.223 and the relative viability (KIN001-266 + Trametinib; first compound 2.53 µM) was 0.232. It also gave a relative viability (KIN001-266 + Trametinib; first compound 8 µM) of 0.292, a relative viability (KIN001-266 + OSI-027; first compound 0.08 µM) of 0.965 and a relative viability (KIN001-266 + OSI-027; first compound 0.253 µM) of 0.905. For the same cell line, the relative viability (KIN001-266 + OSI-027; first compound 0.8 µM) was 0.917, the relative viability (KIN001-266 + OSI-027; first compound 2.53 µM) was 0.804 and the relative viability (KIN001-266 + OSI-027; first compound 8 µM) was 0.8. It also gave a relative viability (KIN001-266 + Phenformin; first compound 0.08 µM) of 0.349, a relative viability (KIN001-266 + Phenformin; first compound 0.253 µM) of 0.367 and a relative viability (KIN001-266 + Phenformin; first compound 0.8 µM) of 0.325. The relative viability (KIN001-266 + Phenformin; first compound 2.53 µM) was 0.274 and the relative viability (KIN001-266 + Phenformin; first compound 8 µM) was 0.307.
Work on PC-3 [JPC-3] yielded a relative viability (KIN001-266; 0.08 µM) of 1, a relative viability (KIN001-266; 0.253 µM) of 1.06 and a relative viability (KIN001-266; 0.8 µM) of 0.916. For the same cell line, the relative viability (KIN001-266; 2.53 µM) was 1.03, the relative viability (KIN001-266; 8 µM) was 0.859 and the relative viability (KIN001-266 + Trametinib; first compound 0.08 µM) was 0.785. It also gave a relative viability (KIN001-266 + Trametinib; first compound 0.253 µM) of 0.739, a relative viability (KIN001-266 + Trametinib; first compound 0.8 µM) of 0.554 and a relative viability (KIN001-266 + Trametinib; first compound 2.53 µM) of 0.741. It also gave a relative viability (KIN001-266 + Trametinib; first compound 8 µM) of 0.607, a relative viability (KIN001-266 + OSI-027; first compound 0.08 µM) of 0.764 and a relative viability (KIN001-266 + OSI-027; first compound 0.253 µM) of 0.776. For the same cell line, the relative viability (KIN001-266 + OSI-027; first compound 0.8 µM) was 0.688, the relative viability (KIN001-266 + OSI-027; first compound 2.53 µM) was 0.755 and the relative viability (KIN001-266 + OSI-027; first compound 8 µM) was 0.751. It also gave a relative viability (KIN001-266 + Phenformin; first compound 0.08 µM) of 0.466, a relative viability (KIN001-266 + Phenformin; first compound 0.253 µM) of 0.496 and a relative viability (KIN001-266 + Phenformin; first compound 0.8 µM) of 0.48. For the same cell line, the relative viability (KIN001-266 + Phenformin; first compound 2.53 µM) was 0.475 and the relative viability (KIN001-266 + Phenformin; first compound 8 µM) was 0.477.

Source: the supplement of paper PMC10307832
